US20260356856A1, “KRAS G12S AND G12C INHIBITORS” (MIRATI THERAPEUTICS, INC., priority 2023, published 2026)

Columns and labels:
[1] = target: T1, KRas-mediated phosphorylation of ERK in MKN1 cells (Homo sapiens, UniProt P01116); assay: Inhibition of KRas-mediated phosphorylation of ERK (HTRF), MKN1 cells; assay type: cell-based; conditions: MKN1 cells (KRas WT); HTRF pERK; 3 h incubation
T1 construct: pERK HTRF read-out
Description: Inhibition of KRas Phosphorylation of ERK (HTRF) by Exemplary Compounds of Formula (Ia) or (Ib)
Cisbio HTRF Advanced pERK Assay Catalog #64AERPEH • Cells: MKN1, PSN1 • Procedure: • 1. Day 1: Seed 6,000 cells/well −25 μl/well in 384-well white solid bottom plate; RPM1_10% FBS. Incubate overnight at 37 °C/5% CO2. • 2.

[2] = target: T2, KRas-mediated phosphorylation of ERK in A549 cells (Homo sapiens, UniProt P01116, G12S); assay: Inhibition of KRas-mediated phosphorylation of ERK (HTRF), A549 cells; assay type: cell-based; conditions: HTRF pERK, 3 h incubation
T2 construct: pERK HTRF read-out

[3] = target: T3, KRas-mediated phosphorylation of ERK in H358 cells (Homo sapiens, UniProt P01116, G12C); assay: Inhibition of KRas-mediated phosphorylation of ERK (HTRF), H358 cells; assay type: cell-based; conditions: HTRF pERK, 3 h incubation
T3 construct: pERK HTRF read-out

KRas G12S = target: T4, KRas G12S (Homo sapiens, UniProt P01116, G12S); assay: KRas binding assay, TR-FRET displacement of Cy5 labelled tracer; conditions: 60-minute incubation at room temperature, 1% DMSO, pH 7.5
T4 construct: Biotinylated KRas (corresponding to amino acids 1-169, produced at Accelegan Inc.); biotin (biotinylated); purchased Accelegan Inc
Outline: (§1)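 Biotinylated KRas (residues 1-169) was incubated with tracer, terbium-streptavidin and compound at 1% DMSO final in 50 mM HEPES pH 7.5 containing 5 mM MgCl2, 0.005% Tween-20 and 1 mM DTT. The plate was read after 60 min at room temperature, and percent-of-control data were fit to a 4-parameter IC50 equation.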

KRas WT = target: T5, KRas WT (Homo sapiens, UniProt P01116); assay: as above; conditions: 60-minute incubation at room temperature, 1% DMSO, pH 7.5
T5 construct: Biotinylated KRas (corresponding to amino acids 1-169, produced at Accelegan Inc.); biotin (biotinylated); purchased Accelegan Inc
Outline: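 Biotinylated KRas (aa 1-169) incubated with Cy5-labelled tracer, terbium streptavidin and compound (1% DMSO final) in 50 mM HEPES pH 7.5, 5 mM MgCl2, 0.005% Tween-20, 1 mM DTT. Tracer displacement read by TR-FRET after 60 min at room temperature; POC values fitted to 4-parameter IC50 equation.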

KRas G12C = target: T6, KRas G12C (Homo sapiens, UniProt P01116, G12C); assay: as above; conditions: 60-minute incubation at room temperature, 1% DMSO, pH 7.5
T6 construct: Biotinylated KRas (corresponding to amino acids 1-169, produced at Accelegan Inc.); biotin (biotinylated); purchased Accelegan Inc
Outline: as §1

T6 sequence (P01116 1-169 isoform P01116-2 G12C): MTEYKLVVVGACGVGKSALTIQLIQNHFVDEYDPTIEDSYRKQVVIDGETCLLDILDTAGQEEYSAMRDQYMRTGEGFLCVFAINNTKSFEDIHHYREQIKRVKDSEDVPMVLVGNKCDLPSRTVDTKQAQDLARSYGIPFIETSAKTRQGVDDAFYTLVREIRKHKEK
T3 sequence (P01116 1-188 isoform P01116-2 G12C): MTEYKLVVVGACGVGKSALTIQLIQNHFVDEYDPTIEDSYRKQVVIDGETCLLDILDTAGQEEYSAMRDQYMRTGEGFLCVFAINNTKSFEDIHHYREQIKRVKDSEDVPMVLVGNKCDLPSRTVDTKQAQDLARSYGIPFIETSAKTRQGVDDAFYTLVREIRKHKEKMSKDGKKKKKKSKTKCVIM
T2 sequence (P01116 1-188 isoform P01116-2 G12S): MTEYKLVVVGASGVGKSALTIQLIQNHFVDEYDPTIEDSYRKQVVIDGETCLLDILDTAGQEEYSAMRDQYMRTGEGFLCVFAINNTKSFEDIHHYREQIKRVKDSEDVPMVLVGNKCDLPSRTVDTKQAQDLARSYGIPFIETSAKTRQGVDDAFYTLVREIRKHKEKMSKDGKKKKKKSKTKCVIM
T4 sequence (P01116 1-169 isoform P01116-2 G12S): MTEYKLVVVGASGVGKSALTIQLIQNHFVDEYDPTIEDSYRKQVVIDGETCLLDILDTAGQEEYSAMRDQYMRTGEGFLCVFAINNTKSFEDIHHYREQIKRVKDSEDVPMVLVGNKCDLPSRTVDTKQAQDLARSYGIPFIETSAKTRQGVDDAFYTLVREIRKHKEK
T1 sequence (P01116 1-188 isoform P01116-2): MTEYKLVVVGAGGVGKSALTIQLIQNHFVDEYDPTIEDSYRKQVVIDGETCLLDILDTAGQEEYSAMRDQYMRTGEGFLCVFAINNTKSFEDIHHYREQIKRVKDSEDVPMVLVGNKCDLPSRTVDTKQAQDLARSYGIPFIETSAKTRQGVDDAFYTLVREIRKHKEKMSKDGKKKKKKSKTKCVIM
T5 sequence (P01116 1-169 isoform P01116-2): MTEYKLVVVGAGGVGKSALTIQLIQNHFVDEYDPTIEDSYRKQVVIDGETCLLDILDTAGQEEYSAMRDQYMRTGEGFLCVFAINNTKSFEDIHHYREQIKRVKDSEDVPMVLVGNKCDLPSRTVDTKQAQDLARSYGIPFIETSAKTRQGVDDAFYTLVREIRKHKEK

| SMILES | IC50 [1] [nM] | IC50 [2] [nM] | IC50 [3] [nM] | IC50 (KRas G12S) [nM] | IC50 (KRas WT) [nM] | IC50 (KRas G12C) [nM] |
| --- | --- | --- | --- | --- | --- | --- |
| CCc1c(F)ccc2cc(O)cc(-c3ncc4c(N5CC(CC(=O)n6ccc(C)n6)C5)nc(OC[C@@]56CCCN5C[C@H](F)C6)nc4c3F)c12 [Example 84, 2-(1-(7-(8-ethyl-7-fluoro-3-hydroxynaphthalen-1-yl)-8-fluoro-2-(((2R,7aS)-2-fluorotetrahydro-1H-pyrrolizin-7a(5H)-yl)methoxy)pyrido[4,3-d]pyrimidin-4-yl)azetidin-3-yl)-1-(3-methyl-1H-pyrazol-1-yl) ethan-1-one] | 6390 | 55 | 7600 | 7 | 154 | 53 |
| CCc1c(F)ccc2cc(O)cc(-c3ncc4c(N5CC[C@H](C(=O)n6ccc(C)n6)[C@H](C)C5)nc(OC[C@@]56CCCN5C[C@H](F)C6)nc4c3F)c12 [Example 85, ((3S,4S)-1-(7-(8-ethyl-7-fluoro-3-hydroxynaphthalen-1-yl)-8-fluoro-2-(((2R,7aS)-2-fluorotetrahydro-1H-pyrrolizin-7a(5H)-yl)methoxy)pyrido[4,3-d]pyrimidin-4-yl)-3-methylpiperidin-4-yl)(3-methyl-1H-pyrazol-1-yl)methanone] | 48 | 883 | 458 | 17 | 8 | 28 |
| CCc1c(F)ccc2cc(O)cc(-c3ncc4c(N(C)CCCC(=O)n5ccc(C)n5)nc(OC[C@@]56CCCN5C[C@H](F)C6)nc4c3F)c12 [Example 110, 4-((7-(8-ethyl-7-fluoro-3-hydroxynaphthalen-1-yl)-8-fluoro-2-(((2R,7aS)-2-fluorotetrahydro-1H-pyrrolizin-7a(5H)-yl)methoxy)pyrido[4,3-d]pyrimidin-4-yl)(methyl)amino)-1-(3-methyl-1H-pyrazol-1-yl) butan-1-one] | 1320 | 12 | 91 | < 2 | 58 | < 2 |
| CCc1c(F)ccc2cc(O)cc(-c3ncc4c(N(C)CCC(=O)n5ccc(C)n5)nc(OC[C@@]56CCCN5C[C@H](F)C6)nc4c3F)c12 [Example 121, 3-((7-(8-ethyl-7-fluoro-3-hydroxynaphthalen-1-yl)-8-fluoro-2-(((2R,7aS)-2-fluorotetrahydro-1H-pyrrolizin-7a(5H)-yl)methoxy)pyrido[4,3-d]pyrimidin-4-yl)(methyl)amino)-1-(3-methyl-1H-pyrazol-1-yl) propan-1-one] | 875 | 243 | 382 | 16 | 30 | 16 |
| CCc1c(F)ccc2cc(O)cc(-c3ncc4c(N5CCN(C(=O)n6ccc(C)n6)C(CF)C5)nc(OC[C@@]56CCCN5C[C@H](F)C6)nc4c3F)c12 (stereo partly drawn) [Example 123, (4-(7-(8-ethyl-7-fluoro-3-hydroxynaphthalen-1-yl)-8-fluoro-2-(((2R,7aS)-2-fluorotetrahydro-1H-pyrrolizin-7a(5H)-yl)methoxy)pyrido[4,3-d]pyrimidin-4-yl)-2-(fluoromethyl)piperazin-1-yl)(3-methyl-1H-pyrazol-1-yl)methanone] | 219 | 2740 | 264 | 68 | 30 | 42 |
| CCc1c(F)ccc2cc(O)cc(-c3ncc4c(N5CCCCC(C(=O)n6ccc(C)n6)CC5)nc(OC[C@@]56CCCN5C/C(=C\F)C6)nc4c3F)c12 (stereo partly drawn) [Example 124, (1-(7-(8-ethyl-7-fluoro-3-hydroxynaphthalen-1-yl)-8-fluoro-2-(((S,Z)-2-(fluoromethylene)tetrahydro-1H-pyrrolizin-7a(5H)-yl)methoxy)pyrido[4,3-d]pyrimidin-4-yl)azocan-4-yl)(3-methyl-1H-pyrazol-1-yl)methanone] | 93 | 7 | 25 | 3 | 103 | 4 |
| CCc1c(F)ccc2cc(O)cc(-c3ncc4c(N5CCN(C(=O)n6ccc(C)n6)C(C(F)(F)F)C5)nc(OC[C@@]56CCCN5C[C@H](F)C6)nc4c3F)c12 (stereo partly drawn) [Example 127, (4-(7-(8-ethyl-7-fluoro-3-hydroxynaphthalen-1-yl)-8-fluoro-2-(((2R,7aS)-2-fluorotetrahydro-1H-pyrrolizin-7a(5H)-yl)methoxy)pyrido[4,3-d]pyrimidin-4-yl)-2-(trifluoromethyl)piperazin-1-yl)(3-methyl-1H-pyrazol-1-yl)methanone] | 514 | 7190 | 635 | 407 | 193 | 224 |
| CCc1c(F)ccc2cc(O)cc(-c3ncc4c(N5C[C@H]6C[C@@H](C(=O)n7ccc(C)n7)C[C@H]6C5)nc(OC[C@@]56CCCN5C[C@H](F)C6)nc4c3F)c12 [Example 128, ((3aR,5S,6aS)-2-(7-(8-ethyl-7-fluoro-3-hydroxynaphthalen-1-yl)-8-fluoro-2-(((2R,7aS)-2-fluorotetrahydro-1H-pyrrolizin-7a(5H)-yl)methoxy)pyrido[4,3-d]pyrimidin-4-yl)octahydrocyclopenta[c]pyrrol-5-yl)(3-methyl-1H-pyrazol-1-yl)methanone] | 7430 | 57 | 1540 | 11 | 1190 | 93 |
| N#Cc1c(N)sc2c(F)ccc(-c3c(Cl)cc4c(N5CCC(C(=O)n6cccn6)CC5)nc(OC[C@@]56CCCN5C[C@H](F)C6)nc4c3F)c12 [Example 129, 4-(4-(4-(1H-pyrazole-1-carbonyl)piperidin-1-yl)-6-chloro-8-fluoro-2-(((2R,7aS)-2-fluorotetrahydro-1H-pyrrolizin-7a(5H)-yl)methoxy)quinazolin-7-yl)-2-amino-7-fluorobenzo[b]thiophene-3-carbonitrile] | 139 | 4 | 26 | 5 | 8 | 7 |
| Cc1ccn(C(=O)C2CCCN(c3nc(OC[C@@]45CCCN4C[C@H](F)C5)nc4c(F)c(-c5ccc(F)c6sc(N)c(C#N)c56)c(Cl)cc34)CC2)n1 (stereo partly drawn) [Example 130, 2-amino-4-(6-chloro-8-fluoro-2-(((2R,7aS)-2-fluorotetrahydro-1H-pyrrolizin-7a(5H)-yl)methoxy)-4-(4-(3-methyl-1H-pyrazole-1-carbonyl)azepan-1-yl)quinazolin-7-yl)-7-fluorobenzo[b]thiophene-3-carbonitrile] | 200 | 7 | 7 | 8 | 10 | 11 |
| N#Cc1c(N)sc2c(F)ccc(-c3c(Cl)cc4c(N5CCCC(C(=O)n6cccn6)CC5)nc(OC[C@@]56CCCN5C[C@H](F)C6)nc4c3F)c12 (stereo partly drawn) [Example 131, 4-(4-(4-(1H-pyrazole-1-carbonyl)azepan-1-yl)-6-chloro-8-fluoro-2-(((2R,7aS)-2-fluorotetrahydro-1H-pyrrolizin-7a(5H)-yl)methoxy)quinazolin-7-yl)-2-amino-7-fluorobenzo[b]thiophene-3-carbonitrile] | 258 | 5 | 9 | 6 | 7 | 7 |
| Cc1ccn(C(=O)C2CCCN(c3nc(OC[C@@]45CCCN4C[C@H](F)C5)nc4c(F)c(-c5ccc(F)c6sc(N)c(C#N)c56)c(Cl)cc34)C2)n1 (stereo partly drawn) [Example 132, 2-amino-4-(6-chloro-8-fluoro-2-(((2R,7aS)-2-fluorotetrahydro-1H-pyrrolizin-7a(5H)-yl)methoxy)-4-(3-(3-methyl-1H-pyrazole-1-carbonyl)piperidin-1-yl)quinazolin-7-yl)-7-fluorobenzo[b]thiophene-3-carbonitrile] | 404 | > 10000 | 1200 | 17 | 25 | 19 |
| Cc1ccn(C(=O)C2CCN(c3nc(OC[C@@]45CCCN4C[C@H](F)C5)nc4c(F)c(-c5ccc(F)c6sc(N)c(C#N)c56)c(Cl)cc34)CC2)n1 [Example 133, 2-amino-4-(6-chloro-8-fluoro-2-(((2R,7aS)-2-fluorotetrahydro-1H-pyrrolizin-7a(5H)-yl)methoxy)-4-(4-(3-methyl-1H-pyrazole-1-carbonyl)piperidin-1-yl)quinazolin-7-yl)-7-fluorobenzo[b]thiophene-3-carbonitrile] | 105 | 7 | 20 | 7 | 17 | 17 |
| Cc1ccn(C(=O)CC2CN(c3nc(OC[C@@]45CCCN4C[C@H](F)C5)nc4c(F)c(-c5ccc(F)c6sc(N)c(C#N)c56)c(Cl)cc34)C2)n1 [Example 138, 2-amino-4-(6-chloro-8-fluoro-2-(((2R,7aS)-2-fluorotetrahydro-1H-pyrrolizin-7a(5H)-yl)methoxy)-4-(3-(2-(3-methyl-1H-pyrazol-1-yl)-2-oxoethyl)azetidin-1-yl)quinazolin-7-yl)-7-fluorobenzo[b]thiophene-3-carbonitrile] | 106 | 137 | 157 | 6 | 16 | 13 |
